Assay results reported in US4206215A, “Antimicrobial bis-[4-(substituted-amino)-1-pyridinium]alkanes” (Sterling Drug Inc., priority 1977, dated 1980).
Where two headings read alike, the source gives them in different places.

What was measured:
A. niger 16404 = assay: In vitro antifungal activity, MIC (modified Autotiter method); assay type: cell-based, Aspergillus niger; conditions: 18-20 hours at 37° C.; for MIC: Aspergillus niger, 16404, 20 h, read-out: MIC A. niger 16404
Summary of the method: (§1)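 Compounds are diluted serially by twofold steps in sterile water using the Autotiter, beginning with a 1,000 mcg./ml. solution; addition of inoculated double-strength semisynthetic medium with glucose yields final concentrations between 500 and 0.06 mcg./ml.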

[1] = test system: Streptococcus mutans OMZ-61; assay: Dental plaque-preventive effectiveness in the presence of sterile human saliva (50%); assay type: cell-based; conditions: for Dental Plaque Preventive Activity in 50% saliva Minimum Effective Conc. (%): 50% sterile human saliva
Summary of the method: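 Hydroxylapatite or enamel pieces soaked in 1.0% or 0.1% compound solution (two 1-min soaks with air drying, 5-min water rinse), then incubated anaerobically at 37° C with S. mutans in sucrose beef-extract medium; cycle repeated for 48 h total. Plaque scored by red dye staining; minimum effective concentration found by lower doses.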

E. Coli ATCC 8739 = assay: Effect of serum on bacteriostatic activity (serial tube dilution test); assay type: cell-based, Escherichia coli; conditions: for Fold Increase in MIC E. Coli ATCC 8739: 40% vs 0% horse serum; for MIC: Escherichia coli, ATCC8739
Summary of the method: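 Bacteriostatic potency against Escherichia coli ATCC 8739 was measured with the standard serial tube dilution test. Minimum inhibitory concentrations were determined in pairs, with the test medium either lacking serum or containing 40% horse serum heat-inactivated at 56° C. for 30 min. Serum impact was reported as the fold increase in MIC (mcg./ml.).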

Ps. aerug. MGH-2 = assay: In vitro antibacterial activity, MIC (modified Autotiter method); assay type: cell-based, Pseudomonas aeruginosa; conditions: Pseudomonas aeruginosa, 20 h, 18-20 hours at 37° C.; read-out: MIC Ps. aerug. MGH-2
Summary of the method: as §1

K. pneum. 39645 = assay: as above; assay type: cell-based, Klebsiella pneumoniae; conditions: Klebsiella pneumoniae, 20 h, 18-20 hours at 37° C.; read-out: MIC K. pneum. 39645
Summary of the method: as §1

[2] = Acute oral toxicity (ALD50); assay type: in vivo; conditions: mouse, in vivo, po, mice, read-out: 7-Day ALD50
Protocol: (§2) The acute oral toxicity (ALD50) of several representative examples was determined as follows: Groups of 3 young adult male Swiss-Webster strain albino mice were fasted approximately 4 hours before medication and then medicated once orally by stomach tube.

[3] = test system: young adult male Swiss-Webster strain albino mice; assay: Acute oral toxicity (ALD50); assay type: in vivo
Protocol: as §2

P. mirab. MGH-1 = assay: In vitro antibacterial activity, MIC (modified Autotiter method); assay type: cell-based, Proteus mirabilis; conditions: 18-20 hours at 37° C.; for MIC: Proteus mirabilis, 20 h, read-out: MIC P. mirab. MGH-1
Summary of the method: as §1

S. pyogen. C203 = assay: as above; assay type: cell-based, Streptococcus pyogenes; conditions: 18-20 hours at 37° C.; for MIC: Streptococcus pyogenes, 20 h, read-out: MIC S. pyogen. C203
Summary of the method: as §1

C. albicans 10231 = assay: In vitro antifungal activity, MIC (modified Autotiter method); assay type: cell-based, Candida albicans; conditions: Candida albicans, 10231, 20 h, 18-20 hours at 37° C.; read-out: MIC C. albicans 10231
Summary of the method: as §1

C. albicans Wisc. = assay: as above; assay type: cell-based, Candida albicans; conditions: 18-20 hours at 37° C.; for MIC: Candida albicans, 20 h, read-out: MIC C. albicans Wisc.
Summary of the method: as §1

[4] = 40% heat inactivated horse serum, read-out: MIC E. Coli ATCC 8739 40% Serum
[5] = read-out: MIC E. Coli ATCC 8739 0% Serum
[6] = suspension in 1% gum tragacanth
[7] = 125 mg/kg oral, suspension in 1% G.T.
[8] = 250 mg/kg oral, suspension in 1% G.T.
[9] = 500 mg/kg oral, suspension in 1% G.T.
[10] = 1000 mg/kg oral, suspension in 1% G.T.
[11] = 125 mg/kg oral, aqueous solution
[12] = 250 mg/kg oral, aqueous solution
[13] = 500 mg/kg oral, aqueous solution

Row | Compound | MIC (A. niger 16404) | Dental Plaque Preventive Activity in 50% saliva Minimum Effective Conc. (%) [1] | Fold Increase in MIC E. Coli ATCC 8739 (E. Coli ATCC 8739) | MIC (E. Coli ATCC 8739; [4]) | MIC (E. Coli ATCC 8739; [5]) | MIC (Ps. aerug. MGH-2) | MIC (K. pneum. 39645) | LD50 at 168 h [2, 6] | Mortality 7 Days [3, 7] | Mortality 24 Hrs [3, 7] | Mortality 7 Days [3, 8] | Mortality 24 Hrs [3, 8] | Mortality 7 Days [3, 9] | Mortality 24 Hrs [3, 9] | Mortality 7 Days [3, 10] | Mortality 24 Hrs [3, 10] | MIC (S. pyogen. C203) | MIC (C. albicans 10231) | MIC (P. mirab. MGH-1) | MIC (C. albicans Wisc.) | also measured
1 | CCCCCCNc1cc[n+](CCCCCCCCCCCCCC[n+]2ccc(NCCCCCC)cc2)cc1 [Example 5C, 1,14-bis-[4-(hexylamino)-1-pyridinium]tetradecane dibromide] | 3 µg/mL | 0.05% | 32 fold | 25 µg/mL | 0.78 µg/mL | 6 µg/mL | 0.76 µg/mL | > 1000 mg/kg | 0/3 | 0/3 | 0/3 | 0/3 | 0/3 | 0/3 | 1/3 | 1/3 | 1 µg/mL | 1.5 µg/mL |  |  | Plaque formation in 50% saliva plaque test (footnote 1) ([1]; 0.005%, 50% saliva): plaque formed; Bacterial growth in 50% saliva plaque test (footnote 1) ([1]; 0.05% concentration, 50% saliva): No bacterial growth; MIC P. mirab. MGH-1 (P. mirab. MGH-1; listed as SC): 1.5 µg/mL; MIC C. albicans Wisc. (C. albicans Wisc.; listed as SC): 0.76 µg/mL
2 | CCCCCCCCNc1cc[n+](CCCCCCCC[n+]2ccc(NCCCCCCCC)cc2)cc1 [Example 11, 1,8-bis-[4-(octylamino)-1-pyridinium]octane dibromide] | 3.9 µg/mL | 0.05% | 64 fold | 31.2 µg/mL | 0.5 µg/mL | 15.6 µg/mL | 1.95 µg/mL | > 1000 mg/kg | 0/3 | 0/3 | 0/3 | 0/3 | 1/3 | 0/3 | 0/3 | 0/3 | 1 µg/mL | 1 µg/mL | 7.8 µg/mL | 1 µg/mL | 
3 | CCCCCCCNc1cc[n+](CCCCCCCCCCCC[n+]2ccc(NCCCCCCC)cc2)cc1 [Example 3, 1,12-bis-[4-(heptylamino)-1-pyridinium]dodecane dibromide] |  | 0.1% | 32 fold | 25 µg/mL | 0.78 µg/mL | 6.25 µg/mL | 3.13 µg/mL | 1000 mg/kg | 0/3 | 0/3 | 0/3 | 0/3 | 1/3 | 0/3 | 1/3 | 1/3 |  | 1.56 µg/mL | 3.13 µg/mL | 3.13 µg/mL | MIC A. niger 16404 (A. niger 16404): 3.13 µg/mL; LD50 at 168 h ([2]; aqueous solution): 315 mg/kg; Mortality 7 Days [3, 11]: 0/3; Mortality 24 Hrs [3, 11]: 0/3; Mortality 7 Days [3, 12]: 1/3; Mortality 24 Hrs [3, 12]: 1/3; Mortality 7 Days [3, 13]: 3/3; Mortality 24 Hrs [3, 13]: 2/3; MIC S. pyogen. C203 (S. pyogen. C203): 0.39 µg/mL
4 | CCCCC(CC)CNc1cc[n+](CCCCCCCCCC[n+]2ccc(NCC(CC)CCCC)cc2)cc1 (stereo not shown) [Example 58, 1,10-bis-[4-(2-ethylhexylamino)-1-pyridinium]decane dibromide] |  | Ca. 0.005% | 32 fold | 15.6 µg/mL | 0.5 µg/mL | 48.4 µg/mL | 3 µg/mL | > 1000 mg/kg | 0/3 | 0/3 | 0/3 | 0/3 | 0/3 | 0/3 | 0/3 | 0/3 | 1.95 µg/mL | 3 µg/mL | 12.1 µg/mL | 1.5 µg/mL | MIC A. niger 16404 (A. niger 16404): 6.0 µg/mL
5 | CCCCCCCNc1cc[n+](CCCCCCCCC[n+]2ccc(NCCCCCCC)cc2)cc1 [Example 24, 1,9-bis-[4-(heptylamino)-1-pyridinium]nonane dibromide] | 3.9 µg/mL | Ca. 0.005% | 32 fold | 7.8 µg/mL | 0.25 µg/mL | 62.5 µg/mL | 1.95 µg/mL | > 1000 mg/kg | 0/3 | 0/3 | 0/3 | 0/3 | 1/3 | 0/3 | 0/3 | 0/3 | 0.5 µg/mL | 1 µg/mL |  | 1 µg/mL | MIC P. mirab. MGH-1 (P. mirab. MGH-1): 15.6 µg/mL
